Results from patent US20240239790A1, “7-Morpholino-1,6-Naphthyridin-5-yl Derivatives and Pharmaceutical Compositions Thereof Useful as DNA-PK Inhibitor” (adMare Therapeutics Society, priority 2021, published 2024).
Read-outs that look alike come from different tables or passages of the source.

Columns and labels:
DNA-PK = target: T1, DNA-PK (Homo sapiens, UniProt P78527); experiment: DNA-PK Assay for Biochemical Enzymatic Inhibition (ADP Glo Kinase assay); details: DNA-PK enzyme, Table 1
T1 construct: purchased Invitrogen PR9107A
Procedure: A biochemical assay was performed to identify IC50 values against DNA-PK activity in a two-step reaction with a kinase reaction followed by ADP Glo™ Kinase assay Kit (Promega V9102).
Three-fold serial dilutions of compounds in DMSO were prepared in kinase assay buffer (50 mM HEPES pH 7.5, 20 mM MgCl2, 100 mM KCl, 50 μM DTT, 10 μg/ml calf thymus DNA, 0.01% Tween 20). Kinase assay buffer was used to prepare compound treatments to 0.02% DMSO (dimethyl sulphoxide) content. DMSO controls were prepared to produce a maximum and minimum luminescence signal for normalization. Substrate (Anaspec, AS-60210-5) and ATP (Promega V9102) and ATP mix was prepared by dilution in kinase assay buffer for 434.4 μM and 64.4 μM final assay concentrations, respectively. Compounds and control were added to 25 ng DNA-PK enzyme (Invitrogen, PR9107A) diluted in kinase buffer in assay plate (Corning 267459) and incubated for 15 minutes at room temperature prior to addition of substrate and ATP mix.
Throughout the assay, each time a reagent was added to the microplate, it was centrifuged for 1 minute at 1300 rcf. All reagents were added, and incubations carried out at room temperature. The reaction was then incubated for 60 minutes. ADP-ATP standards at 0, 4, 10, 40, 80, and 100% ADP (prepared as specified in the ADP Glo™ Kinase assay kit) were also added to the microplate at a volume equal to the total kinase reaction. The ADP Glo™ Kinase Assay kit was then used to quantify DNA-PK activity: following the 60-minute incubation, a 1:1 volume of ADP Glo reagent was added to all wells, then following a further 45-minute incubation, a 1:1 volume of Kinase Detection Reagent was added to all wells. After this two-step assay, plates were incubated in a Synergy-Neo2 plate reader for 30 minutes with gentle shaking, followed by endpoint luminescent read Luminescence data was normalized by subtracting the background signal and expressing all background-adjusted values as a percentage of the average maximum signal. The data was then expressed as percent inhibition by subtracting from 100% (i.e. maximum luminescent signal will be 0% inhibition) and the resulting data plotted against ten concentration points on a logarithmic scale, using GraphPad Prism. Non-linear regression analysis was performed on each concentration response curve and the log [inhibitor] vs response—variable slope (four parameters) equation was selected to generate IC50 values.

[1] = target: T2, DNA-PK phosphorylation at Serine 2056 (Homo sapiens, UniProt P78527); experiment: Cellular Assay for Inhibition of DNA-PK Phosphorylation at Serine 2056 in FaDu cells (sandwich ELISA, neocarzinostatin); assay type: cell-based; details: pSer2056 DNA-PK
T2 construct: FaDu cells were purchased from ATCC; host or cells: FaDu
Outline: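 pSer2056 and total DNA-PK were measured by sandwich ELISA in BCA-normalised FaDu lysates. Cells had 1 h compound exposure (0.3% DMSO), then 2 h with 1 μg/mL final neocarzinostatin. IC50 was fitted (variable slope) to % inhibition scaled against NCS-stimulated and DMSO-only controls.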

[2] = system: pH2AX induction in HCT116 ATM-/- multicellular tumour spheroids; experiment: Prodrug Radiation Sensitization in Multicellular Tumour Spheroids, inhibition of pH2AX induction following radiation; assay type: cell-based; details: Homo sapiens, HCT-116, 20 Gy
Outline: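 Endpoint: pH2AX (ser 139) or pDNA-PK (ser 2056) in cryosections fixed 1 or 2 h after 20 Gy, comparing oxygenated outer with hypoxic inner layers. Spheroids of ~0.5 mm (HCT116, FaDu; ATM-deficient cells used) held at 20% or 5% O2, 37 °C, stirred. Prodrug range 3.5 nM–10 μM.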

FaDu cell line = experiment: Prodrug Activation in Hypoxic Stirred Tumour Cell Suspensions; details: 10 μM, 4 hours
[3] = neocarzinostatin 1 μg/mL, Table 1
[4] = 5% O2, inner layers, read-out: Prodrug 5% O2 Inner layers EC50
[5] = 5% O2, outer layers, read-out: Prodrug 5% O2 Outer layers EC50
[6] = 20% O2, outer layers, read-out: Prodrug 20% O2 Outer layers EC50

| IC50 (DNA-PK) [µM] | IC50 [1, 3] [µM] | IC50 ([1]; Table 3) [µM] | Fraction of prodrug converted to active form, Hypoxic 0.2% O2 (FaDu cell line) | Fraction of prodrug converted to active form, Oxic 5% O2 (FaDu cell line) | Structure (SMILES) | EC50 [2, 4] [µM] | EC50 [2, 5] [µM] | EC50 [2, 6] [µM] |
| --- | --- | --- | --- | --- | --- | --- | --- | --- |
| 0.01 to 0.15 | – | – | – | – | O=C(NC1CCOCC1)[C@H]1CC[C@@H](Oc2nc(N3CCOCC3)cc3ncccc23)CC1 [Compound 154b, (1S,4S)-4-((7-morpholino-1,6-naphthyridin-5-yl)oxy)-N-(tetrahydro-2H-pyran-4-yl)cyclohexane-1-carboxamide] | – | – | – |
| – | – | 0.1 to 1 | B (B is 0.05 to 0.15) | D (D is 0 to 0.02) | Cc1cc(C)nc(N[C@H]2CC[C@@H](Oc3nc(N4CCOCC4)cc4ncc(N(Cc5cnc([N+](=O)[O-])n5C)S(C)(=O)=O)cc34)CC2)n1 [LFA2098, N-[5-[4-[(4,6-dimethylpyrimidin-2-yl)amino]cyclohexoxy]-7-morpholino-1,6-naphthyridin-3-yl]-N-[(3-methyl-2-nitro-imidazol-4-yl)methyl]methanesulfonamide] | 1 to 10 | 1 to 10 | 1 to 10 |
| – | – | 1 to 10 | B (B is 0.05 to 0.15) | D (D is 0 to 0.02) | CC(c1cnc([N+](=O)[O-])n1C)N(c1cnc2cc(N3CCOCC3)nc(O[C@H]3CC[C@@H](Nc4cncc(C(F)(F)F)n4)CC3)c2c1)S(C)(=O)=O (stereo partly shown) [LFA2099, N-[1-(3-methyl-2-nitro-imidazol-4-yl)ethyl]-N-[7-morpholino-5-[4-[[6-(trifluoromethyl)pyrazin-2-yl]amino]cyclohexoxy]-1,6-naphthyridin-3-yl]methanesulfonamide] | 10 to 100 | 10 to 100 | 10 to 100 |
| – | – | 10 to 30 | C (C is 0.02 to 0.05) | D (D is 0 to 0.02) | CC(c1cnc([N+](=O)[O-])n1C)N(c1cnc2cc(N3CCOCC3)nc(O[C@H]3CC[C@@H](Nc4nccnc4C#N)CC3)c2c1)S(C)(=O)=O (stereo partly shown) [LFA2100, N-[5-[4-[(3-cyanopyrazin-2-yl)amino]cyclohexoxy]-7-morpholino-1,6-naphthyridin-3-yl]-N-[1-(3-methyl-2-nitro-imidazol-4-yl)ethyl]methanesulfonamide] | 0.01 to 0.5 | 1 to 10 | 10 to 100 |
| – | – | 10 to 30 | C (C is 0.02 to 0.05) | D (D is 0 to 0.02) | Cn1c(CN(c2cnc3cc(N4CCOCC4)nc(O[C@H]4CC[C@@H](Nc5cncc(C(F)(F)F)n5)CC4)c3c2)S(C)(=O)=O)cnc1[N+](=O)[O-] [LFA2101, N-[(3-methyl-2-nitro-imidazol-4-yl)methyl]-N-[7-morpholino-5-[4-[[6-(trifluoromethyl)pyrazin-2-yl]amino]cyclohexoxy]-1,6-naphthyridin-3-yl]methanesulfonamide] | 10 to 100 | 10 to 100 | 10 to 100 |
| – | – | 10 to 30 | C (C is 0.02 to 0.05) | D (D is 0 to 0.02) | Cn1c(CN(c2cnc3cc(N4CCOCC4)nc(O[C@H]4CC[C@@H](Nc5nccnc5C#N)CC4)c3c2)S(C)(=O)=O)cnc1[N+](=O)[O-] [LFA2102, N-[5-[4-[(3-cyanopyrazin-2-yl)amino]cyclohexoxy]-7-morpholino-1,6-naphthyridin-3-yl]-N-[(3-methyl-2-nitro-imidazol-4-yl)methyl]methanesulfonamide] | 0.01 to 0.5 | 1 to 10 | 1 to 10 |
| – | – | 1 to 10 | B (B is 0.05 to 0.15) | D (D is 0 to 0.02) | Cn1c(CN(c2cnc3cc(N4CCOCC4)nc(O[C@H]4CC[C@@H](Nc5cnc(C#N)cn5)CC4)c3c2)S(C)(=O)=O)cnc1[N+](=O)[O-] [LFA2103, N-[5-[4-[(5-cyanopyrazin-2-yl)amino]cyclohexoxy]-7-morpholino-1,6-naphthyridin-3-yl]-N-[(3-methyl-2-nitro-imidazol-4-yl)methyl]methanesulfonamide] | 0.01 to 0.5 | 1 to 10 | 10 to 100 |
| – | – | 10 to 30 | A (A is 0.15 to 1) | D (D is 0 to 0.02) | Cc1ccc(N[C@H]2CC[C@@H](Oc3nc(N4CCOCC4)cc4ncc(OC(C)c5cnc([N+](=O)[O-])n5C)cc34)CC2)nc1 (stereo partly shown) [LFA2105, 5-methyl-N-[4-[[3-[1-(3-methyl-2-nitro-imidazol-4-yl)ethoxy]-7-morpholino-1,6-naphthyridin-5-yl]oxy]cyclohexyl]pyridin-2-amine] | 1 to 10 | 1 to 10 | 10 to 100 |

Further lines, the molecule ahead of its results:

| Structure (SMILES) | IC50 (DNA-PK) [µM] | IC50 [1, 3] [µM] | IC50 ([1]; Table 3) [µM] | Fraction of prodrug converted to active form, Hypoxic 0.2% O2 (FaDu cell line) | Fraction of prodrug converted to active form, Oxic 5% O2 (FaDu cell line) | EC50 [2, 4] [µM] | EC50 [2, 5] [µM] | EC50 [2, 6] [µM] |
| --- | --- | --- | --- | --- | --- | --- | --- | --- |
| Cn1cc([C@H]2CC[C@@H](Oc3nc(N4CCOCC4)cc4ncc(OCCN5CCOCC5)cc34)CC2)cn1 [Compound 6, 4-(5-(((1s,4s)-4-(1-methyl-1H-pyrazol-4-yl)cyclohexyl)oxy)-3-(2-morpholinoethoxy)-1,6-naphthyridin-7-yl)morpholine] | 0.01 to 0.15 | 0.1 to 1 | – | – | – | – | – | – |
| FC1(F)CN(c2cc3ncccc3c(O[C@H]3CC[C@@H](n4ccnc4)CC3)n2)CC(F)(F)O1 [Compound 13, 4-(5-(((1s,4s)-4-(1H-imidazol-1-yl)cyclohexyl)oxy)-1,6-naphthyridin-7-yl)-2,2,6,6-tetrafluoromorpholine] | 0.01 to 0.15 | – | – | – | – | – | – | – |
| CN(C)C(=O)COc1ccc(N[C@H]2CC[C@@H](Oc3nc(N4CCOCC4)cc4ncccc34)CC2)nn1 [Compound 57, N,N-dimethyl-2-((6-(((1s,4s)-4-((7-morpholino-1,6-naphthyridin-5-yl)oxy)cyclohexyl)amino)pyridazin-3-yl)oxy)acetamide] | 0.01 to 0.15 | 10 to 30 | – | – | – | – | – | – |
| COCC(=O)N[C@H]1CC[C@@H](Oc2nc(N3CCOCC3)cc3ncccc23)CC1 [Compound 105, 2-Methoxy-N-((1s,4s)-4-((7-morpholino-1,6-naphthyridin-5-yl)oxy)cyclohexyl)acetamide] | 0.001 to 0.01 | 0.1 to 1 | – | – | – | – | – | – |
| CN(C)CC(=O)N[C@H]1CC[C@@H](Oc2nc(N3CCOCC3)cc3ncccc23)CC1 [Compound 106, 2-(Dimethylamino)-N-((1s,4s)-4-((7-morpholino-1,6-naphthyridin-5-yl)oxy)cyclohexyl)acetamide] | 0.01 to 0.15 | – | – | – | – | – | – | – |
| CN(C)C(=N[C@H]1CC[C@@H](Oc2nc(N3CCOCC3)cc3ncccc23)CC1)N(C)C [Compound 129, 1,1,3,3-tetramethyl-2-((1s,4s)-4-((7-morpholino-1,6-naphthyridin-5-yl)oxy)cyclohexyl)guanidine] | 0.01 to 0.15 | – | – | – | – | – | – | – |
| CC(C)(O)C#Cc1cnc2cc(N3CCOCC3)nc(O[C@H]3CC[C@@H](n4ccnc4)CC3)c2c1 [Compound 159, 4-(5-(((1s,4s)-4-(1H-imidazol-1-yl)cyclohexyl)oxy)-7-morpholino-1,6-naphthyridin-3-yl)-2-methylbut-3-yn-2-ol] | 0.01 to 0.15 | – | – | – | – | – | – | – |
| CCNC(=O)c1cnc2cc(N3CCOCC3)nc(O[C@H]3CC[C@@H](n4ccnc4)CC3)c2c1 [Compound 168, 5-(((1s,4s)-4-(1H-imidazol-1-yl)cyclohexyl)oxy)-N-ethyl-7-morpholino-1,6-naphthyridine-3-carboxamide] | 0.01 to 0.15 | – | – | – | – | – | – | – |
| CN(C)C(=O)c1cnc2cc(N3CCOCC3)nc(O[C@H]3CC[C@@H](n4ccnc4)CC3)c2c1 [Compound 170, 5-(((1s,4s)-4-(1H-imidazol-1-yl)cyclohexyl)oxy)-N,N-dimethyl-7-morpholino-1,6-naphthyridine-3-carboxamide] | 0.01 to 0.15 | – | – | – | – | – | – | – |
